Each block holds one compound with its values, some of them ahead of it.
Columns and labels:
Experiment in all cases: Further kinase screen, Invitrogen Z'-LYTE
Assay type in all cases: biochemical
Conditions in all cases: Table 3
[1] = biological target: T1, RPS6KA3 (RSK2) (Homo sapiens, UniProt P51812)
T1 construct: purchased Invitrogen
Method: (§1) Kinase profiling was conducted using Invitrogen Z'-LYTE screening protocol and assay conditions found at www.invitrogen.com. Compound (2) inhibited PLK1 completely at 5 μM.
(§2) A further kinase screen was performed on Compounds (2), (4A), and (4B) using the assay described above.

[2] = biological target: T2, JAK3 (Homo sapiens, UniProt P52333)
T2 construct: purchased Invitrogen
T2 sequence (P52333 1-1124): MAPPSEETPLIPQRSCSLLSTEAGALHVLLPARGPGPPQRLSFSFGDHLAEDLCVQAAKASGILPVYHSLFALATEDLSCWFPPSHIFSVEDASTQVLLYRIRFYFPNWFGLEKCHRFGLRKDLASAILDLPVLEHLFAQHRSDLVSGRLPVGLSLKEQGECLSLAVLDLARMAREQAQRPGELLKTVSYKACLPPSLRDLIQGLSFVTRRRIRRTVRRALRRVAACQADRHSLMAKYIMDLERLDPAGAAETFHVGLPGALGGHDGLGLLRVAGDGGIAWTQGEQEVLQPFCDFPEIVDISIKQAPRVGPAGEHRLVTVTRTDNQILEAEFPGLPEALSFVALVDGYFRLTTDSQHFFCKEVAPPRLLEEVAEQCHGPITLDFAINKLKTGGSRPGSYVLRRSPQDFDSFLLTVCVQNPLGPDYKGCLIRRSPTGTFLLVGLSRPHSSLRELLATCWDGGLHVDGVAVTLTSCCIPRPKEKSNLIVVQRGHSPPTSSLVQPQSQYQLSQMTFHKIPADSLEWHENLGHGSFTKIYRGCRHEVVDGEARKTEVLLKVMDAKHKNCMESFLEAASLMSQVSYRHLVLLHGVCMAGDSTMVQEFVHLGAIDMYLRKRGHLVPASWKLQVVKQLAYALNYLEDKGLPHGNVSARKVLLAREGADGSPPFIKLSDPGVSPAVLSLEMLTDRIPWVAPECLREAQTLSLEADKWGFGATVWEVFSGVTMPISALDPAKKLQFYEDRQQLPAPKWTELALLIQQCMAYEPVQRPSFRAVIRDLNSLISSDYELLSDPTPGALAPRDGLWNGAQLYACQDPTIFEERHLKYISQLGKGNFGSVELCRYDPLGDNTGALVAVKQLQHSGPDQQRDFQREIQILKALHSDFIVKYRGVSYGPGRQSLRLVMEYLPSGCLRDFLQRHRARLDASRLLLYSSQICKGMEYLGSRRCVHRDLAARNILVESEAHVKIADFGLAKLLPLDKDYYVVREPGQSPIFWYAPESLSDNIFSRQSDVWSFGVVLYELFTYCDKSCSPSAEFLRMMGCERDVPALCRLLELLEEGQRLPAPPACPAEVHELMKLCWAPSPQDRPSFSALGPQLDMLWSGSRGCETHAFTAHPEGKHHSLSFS
Method: as §1, §2

[3] = biological target: T3, SYK (Homo sapiens, UniProt P43405)
T3 construct: purchased Invitrogen
Method: as §1, §2

[4] = biological target: T4, RPS6KB1 (p70S6K) (Homo sapiens, UniProt P23443)
T4 construct: purchased Invitrogen
T4 sequence (P23443 whole entry): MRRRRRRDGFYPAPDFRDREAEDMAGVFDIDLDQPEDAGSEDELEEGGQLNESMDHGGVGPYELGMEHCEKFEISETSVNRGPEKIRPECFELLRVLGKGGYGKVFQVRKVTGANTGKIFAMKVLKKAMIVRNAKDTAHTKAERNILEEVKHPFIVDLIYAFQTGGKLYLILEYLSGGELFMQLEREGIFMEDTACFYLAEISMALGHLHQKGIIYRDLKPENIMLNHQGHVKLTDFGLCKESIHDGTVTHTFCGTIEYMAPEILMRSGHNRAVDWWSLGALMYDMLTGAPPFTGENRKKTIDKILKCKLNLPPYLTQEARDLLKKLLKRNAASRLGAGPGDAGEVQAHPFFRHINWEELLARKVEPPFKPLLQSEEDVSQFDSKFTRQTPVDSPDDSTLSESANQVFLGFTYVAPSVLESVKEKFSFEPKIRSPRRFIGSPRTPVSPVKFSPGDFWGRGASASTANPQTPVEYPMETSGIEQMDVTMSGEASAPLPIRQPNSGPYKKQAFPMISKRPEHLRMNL
Method: as §1, §2

[5] = biological target: T5, SRPK1 (Homo sapiens, UniProt Q96SB4)
T5 construct: purchased Invitrogen
T5 sequence (Q96SB4 whole entry): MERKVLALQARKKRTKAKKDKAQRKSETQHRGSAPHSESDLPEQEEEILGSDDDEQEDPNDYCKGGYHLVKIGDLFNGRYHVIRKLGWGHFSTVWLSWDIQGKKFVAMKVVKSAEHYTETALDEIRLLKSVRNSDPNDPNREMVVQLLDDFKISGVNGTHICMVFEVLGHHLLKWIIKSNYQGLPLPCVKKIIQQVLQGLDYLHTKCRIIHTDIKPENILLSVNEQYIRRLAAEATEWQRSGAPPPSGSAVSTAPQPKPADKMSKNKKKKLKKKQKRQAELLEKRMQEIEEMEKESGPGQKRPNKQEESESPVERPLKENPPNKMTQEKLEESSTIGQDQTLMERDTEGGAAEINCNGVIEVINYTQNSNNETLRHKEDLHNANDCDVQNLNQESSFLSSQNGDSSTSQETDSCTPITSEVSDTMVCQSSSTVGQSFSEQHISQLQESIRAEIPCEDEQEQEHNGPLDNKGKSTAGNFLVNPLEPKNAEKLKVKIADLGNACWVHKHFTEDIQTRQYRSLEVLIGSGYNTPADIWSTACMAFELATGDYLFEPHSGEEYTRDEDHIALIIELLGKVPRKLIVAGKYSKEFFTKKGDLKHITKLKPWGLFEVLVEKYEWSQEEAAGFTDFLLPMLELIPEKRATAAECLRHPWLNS
Method: as §1, §2

[6] = biological target: T6, MAPKAPK2 (Homo sapiens, UniProt P49137)
T6 construct: purchased Invitrogen
Method: as §1, §2

[7] = biological target: T7, CSNK1G3 (CK1 gamma 3) (Homo sapiens, UniProt Q9Y6M4)
T7 construct: purchased Invitrogen
T7 sequence (Q9Y6M4 whole entry): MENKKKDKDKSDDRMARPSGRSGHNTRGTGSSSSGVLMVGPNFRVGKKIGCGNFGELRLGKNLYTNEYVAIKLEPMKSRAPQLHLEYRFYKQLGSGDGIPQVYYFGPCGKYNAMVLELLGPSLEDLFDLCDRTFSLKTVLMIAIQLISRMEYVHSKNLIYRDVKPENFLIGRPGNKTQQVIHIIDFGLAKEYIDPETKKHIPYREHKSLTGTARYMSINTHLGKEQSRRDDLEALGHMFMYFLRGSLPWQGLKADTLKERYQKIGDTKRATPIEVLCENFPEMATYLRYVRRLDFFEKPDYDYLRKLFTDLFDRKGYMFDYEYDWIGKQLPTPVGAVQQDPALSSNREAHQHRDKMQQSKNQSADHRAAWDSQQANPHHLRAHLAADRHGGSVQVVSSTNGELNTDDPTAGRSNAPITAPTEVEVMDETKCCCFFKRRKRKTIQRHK
Method: as §1, §2

[8] = biological target: T8, CAMK2A (CaMKII alpha) (Homo sapiens, UniProt Q9UQM7)
T8 construct: purchased Invitrogen
Method: as §1, §2

[9] = biological target: T9, GSK3B (GSK3 beta) (Homo sapiens, UniProt P49841)
T9 construct: purchased Invitrogen
Method: as §1, §2

[10] = biological target: T10, TYK2 (Homo sapiens, UniProt P29597)
T10 construct: purchased Invitrogen
T10 sequence (P29597 whole entry): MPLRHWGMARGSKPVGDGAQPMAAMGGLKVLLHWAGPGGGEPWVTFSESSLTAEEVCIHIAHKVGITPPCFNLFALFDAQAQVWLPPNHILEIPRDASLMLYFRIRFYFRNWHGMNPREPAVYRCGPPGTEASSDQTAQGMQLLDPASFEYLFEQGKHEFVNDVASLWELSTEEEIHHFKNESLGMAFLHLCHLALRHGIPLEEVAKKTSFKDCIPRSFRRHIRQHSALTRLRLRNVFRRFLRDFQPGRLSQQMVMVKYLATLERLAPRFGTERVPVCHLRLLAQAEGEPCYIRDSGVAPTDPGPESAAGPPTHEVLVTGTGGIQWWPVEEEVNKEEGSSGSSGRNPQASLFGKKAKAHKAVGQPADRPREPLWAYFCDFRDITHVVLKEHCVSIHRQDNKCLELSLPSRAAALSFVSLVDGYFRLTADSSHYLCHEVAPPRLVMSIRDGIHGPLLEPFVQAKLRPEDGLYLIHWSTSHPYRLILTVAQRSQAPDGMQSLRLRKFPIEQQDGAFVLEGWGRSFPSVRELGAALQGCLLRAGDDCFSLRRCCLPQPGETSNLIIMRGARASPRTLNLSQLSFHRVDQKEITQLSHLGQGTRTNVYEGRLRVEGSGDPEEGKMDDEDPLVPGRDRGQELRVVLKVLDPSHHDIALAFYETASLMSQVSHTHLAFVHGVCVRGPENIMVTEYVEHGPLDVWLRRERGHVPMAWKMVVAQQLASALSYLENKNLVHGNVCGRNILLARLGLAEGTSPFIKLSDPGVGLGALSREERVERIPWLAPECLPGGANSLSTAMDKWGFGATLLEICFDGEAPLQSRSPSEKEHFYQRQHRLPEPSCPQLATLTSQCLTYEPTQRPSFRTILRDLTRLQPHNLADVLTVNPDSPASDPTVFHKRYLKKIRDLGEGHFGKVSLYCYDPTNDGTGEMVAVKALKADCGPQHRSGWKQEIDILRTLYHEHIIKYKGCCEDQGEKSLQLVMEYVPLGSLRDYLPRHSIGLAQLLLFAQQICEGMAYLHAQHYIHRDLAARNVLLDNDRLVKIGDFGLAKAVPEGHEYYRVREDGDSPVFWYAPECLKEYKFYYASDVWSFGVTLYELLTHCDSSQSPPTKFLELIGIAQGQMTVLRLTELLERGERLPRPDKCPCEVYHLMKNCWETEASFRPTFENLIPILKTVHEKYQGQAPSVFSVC
Method: as §1, §2

[11] = biological target: T11, GRK6 (Homo sapiens, UniProt P43250)
T11 construct: purchased Invitrogen
T11 sequence (P43250 whole entry): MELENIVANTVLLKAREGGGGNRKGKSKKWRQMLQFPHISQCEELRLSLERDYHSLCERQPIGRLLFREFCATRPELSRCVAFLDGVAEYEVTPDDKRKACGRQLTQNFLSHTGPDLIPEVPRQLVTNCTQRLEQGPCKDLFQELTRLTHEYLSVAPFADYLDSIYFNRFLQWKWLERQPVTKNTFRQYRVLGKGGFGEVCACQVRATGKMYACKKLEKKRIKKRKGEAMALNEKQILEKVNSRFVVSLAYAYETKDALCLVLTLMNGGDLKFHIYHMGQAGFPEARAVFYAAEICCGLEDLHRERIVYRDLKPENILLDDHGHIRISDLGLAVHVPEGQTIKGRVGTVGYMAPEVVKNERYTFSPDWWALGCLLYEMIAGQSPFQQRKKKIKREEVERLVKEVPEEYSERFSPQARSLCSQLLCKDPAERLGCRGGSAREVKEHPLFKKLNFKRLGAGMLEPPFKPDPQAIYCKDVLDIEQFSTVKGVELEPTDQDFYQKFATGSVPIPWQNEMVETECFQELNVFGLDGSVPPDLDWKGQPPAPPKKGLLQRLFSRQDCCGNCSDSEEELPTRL
Method: as §1, §2

[12] = biological target: T12, CAMK4 (CaMKIV) (Homo sapiens, UniProt Q16566)
T12 construct: purchased Invitrogen
Method: as §1, §2

[13] = biological target: T13, RPS6KA5 (MSK1) (Homo sapiens, UniProt O75582)
T13 construct: purchased Invitrogen
T13 sequence (O75582 whole entry): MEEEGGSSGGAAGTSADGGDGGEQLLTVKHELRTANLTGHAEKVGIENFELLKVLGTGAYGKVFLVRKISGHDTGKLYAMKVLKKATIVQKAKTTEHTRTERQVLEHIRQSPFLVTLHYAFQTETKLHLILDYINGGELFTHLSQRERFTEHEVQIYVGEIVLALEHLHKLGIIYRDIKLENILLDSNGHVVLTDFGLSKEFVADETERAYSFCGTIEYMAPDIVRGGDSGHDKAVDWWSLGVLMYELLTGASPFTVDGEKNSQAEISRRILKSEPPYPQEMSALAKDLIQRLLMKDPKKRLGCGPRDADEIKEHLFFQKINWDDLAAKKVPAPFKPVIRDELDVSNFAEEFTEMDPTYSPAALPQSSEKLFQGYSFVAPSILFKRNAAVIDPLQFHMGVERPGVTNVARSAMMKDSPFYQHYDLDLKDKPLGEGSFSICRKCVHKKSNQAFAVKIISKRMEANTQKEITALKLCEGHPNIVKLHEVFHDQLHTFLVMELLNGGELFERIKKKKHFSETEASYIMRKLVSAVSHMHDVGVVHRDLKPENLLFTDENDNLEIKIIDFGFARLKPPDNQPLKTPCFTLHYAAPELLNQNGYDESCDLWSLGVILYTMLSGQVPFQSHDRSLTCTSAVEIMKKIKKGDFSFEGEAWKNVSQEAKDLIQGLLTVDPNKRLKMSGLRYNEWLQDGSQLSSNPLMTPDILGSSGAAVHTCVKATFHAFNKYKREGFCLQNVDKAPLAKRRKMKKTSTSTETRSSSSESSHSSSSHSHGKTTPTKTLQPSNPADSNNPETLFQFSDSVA
Method: as §1, §2

[14] = biological target: T14, MARK3 (Homo sapiens, UniProt P27448)
T14 construct: purchased Invitrogen
T14 sequence (P27448 whole entry): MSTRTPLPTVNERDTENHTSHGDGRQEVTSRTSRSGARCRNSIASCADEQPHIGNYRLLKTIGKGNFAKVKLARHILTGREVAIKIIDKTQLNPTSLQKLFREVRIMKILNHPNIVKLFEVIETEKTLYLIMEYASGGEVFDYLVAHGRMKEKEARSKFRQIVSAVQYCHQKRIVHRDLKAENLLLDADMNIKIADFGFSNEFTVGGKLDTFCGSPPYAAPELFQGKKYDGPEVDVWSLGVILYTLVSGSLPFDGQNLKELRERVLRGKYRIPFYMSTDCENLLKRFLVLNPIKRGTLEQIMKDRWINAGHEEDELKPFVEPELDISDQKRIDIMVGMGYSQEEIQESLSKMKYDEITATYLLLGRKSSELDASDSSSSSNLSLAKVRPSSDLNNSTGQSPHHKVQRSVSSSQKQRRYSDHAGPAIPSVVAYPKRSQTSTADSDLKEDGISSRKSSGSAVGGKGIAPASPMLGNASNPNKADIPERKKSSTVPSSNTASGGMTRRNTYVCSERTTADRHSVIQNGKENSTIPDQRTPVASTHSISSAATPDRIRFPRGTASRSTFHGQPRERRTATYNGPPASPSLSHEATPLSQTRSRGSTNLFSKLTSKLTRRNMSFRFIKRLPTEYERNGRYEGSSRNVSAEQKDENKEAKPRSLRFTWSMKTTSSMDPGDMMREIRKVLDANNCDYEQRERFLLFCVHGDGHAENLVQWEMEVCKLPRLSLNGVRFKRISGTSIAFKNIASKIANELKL
Method: as §1, §2

SMILES: COc1ccc(OC(=O)n2c(=O)oc3cc(C(C)=O)ccc32)cc1 [Compound 2]
% Inhibition Point 1 [1]: −200% | % Inhibition Point 2 [1]: −212% | % Inhibition mean [1]: −206% | % Inhibition Point 1 [2]: −90% | % Inhibition Point 2 [2]: −83% | % Inhibition mean [2]: −86% | % Inhibition Point 1 [3]: 4% | % Inhibition Point 2 [3]: −4% | % Inhibition mean [3]: 0% | % Inhibition Point 1 [4]: −138% | % Inhibition Point 2 [4]: −122% | % Inhibition mean [4]: −130% | % Inhibition Point 1 [5]: −49% | % Inhibition Point 2 [5]: −38% | % Inhibition mean [5]: −44% | % Inhibition Point 1 [6]: 0% | % Inhibition Point 2 [6]: −10% | % Inhibition mean [6]: −5% | % Inhibition Point 1 [7]: 13% | % Inhibition Point 2 [7]: 16% | % Inhibition mean [7]: 14% | % Inhibition Point 1 [8]: −14% | % Inhibition Point 2 [8]: −10% | % Inhibition mean [8]: −12% | % Inhibition Point 1 [9]: −7% | % Inhibition Point 2 [9]: 0% | % Inhibition mean [9]: −4% | % Inhibition Point 1 [10]: −98% | % Inhibition Point 2 [10]: −99% | % Inhibition mean [10]: −99% | % Inhibition Point 1 [11]: 14% | % Inhibition Point 2 [11]: 17% | % Inhibition mean [11]: 16% | % Inhibition Point 1 [12]: −159% | % Inhibition Point 2 [12]: −201% | % Inhibition mean [12]: −180% | % Inhibition Point 1 [13]: −215% | % Inhibition Point 2 [13]: −231% | % Inhibition mean [13]: −223%

% Inhibition Point 1 [1]: 55% | % Inhibition Point 2 [1]: 56% | % Inhibition mean [1]: 55% | % Inhibition Point 1 [2]: 41% | % Inhibition Point 2 [2]: 30% | % Inhibition mean [2]: 36% | % Inhibition Point 1 [3]: 21% | % Inhibition Point 2 [3]: 24% | % Inhibition mean [3]: 23% | % Inhibition Point 1 [4]: 19% | % Inhibition Point 2 [4]: 22% | % Inhibition mean [4]: 21% | % Inhibition Point 1 [5]: −6% | % Inhibition Point 2 [5]: 2% | % Inhibition mean [5]: −2% | % Inhibition Point 1 [6]: 48% | % Inhibition Point 2 [6]: 53% | % Inhibition mean [6]: 51% | % Inhibition Point 1 [7]: 30% | % Inhibition Point 2 [7]: 31% | % Inhibition mean [7]: 31% | % Inhibition Point 1 [8]: 20% | % Inhibition Point 2 [8]: 24% | % Inhibition mean [8]: 22% | % Inhibition Point 1 [9]: 61% | % Inhibition Point 2 [9]: 60% | % Inhibition mean [9]: 60% | % Inhibition Point 1 [14]: 8% | % Inhibition Point 2 [14]: 12% | % Inhibition mean [14]: 10% | % Inhibition Point 1 [10]: 7% | % Inhibition Point 2 [10]: 11% | % Inhibition mean [10]: 9% | % Inhibition Point 1 [11]: 42% | % Inhibition Point 2 [11]: 43% | % Inhibition mean [11]: 42% | % Inhibition Point 1 [12]: 18% | % Inhibition Point 2 [12]: 24% | % Inhibition mean [12]: 21% | % Inhibition Point 1 [13]: 35% | % Inhibition Point 2 [13]: 32% | % Inhibition mean [13]: 33%
SMILES: COc1ccc(OC(=S)n2c(=O)oc3cc(C(C)=O)ccc32)cc1 [Compound 4A]

% Inhibition Point 1 [1]: 58% | % Inhibition Point 2 [1]: 64% | % Inhibition mean [1]: 61% | % Inhibition Point 1 [2]: 65% | % Inhibition Point 2 [2]: 64% | % Inhibition mean [2]: 65% | % Inhibition Point 1 [3]: 58% | % Inhibition Point 2 [3]: 54% | % Inhibition mean [3]: 56% | % Inhibition Point 1 [4]: 35% | % Inhibition Point 2 [4]: 44% | % Inhibition mean [4]: 40% | % Inhibition Point 1 [5]: 0% | % Inhibition Point 2 [5]: 2% | % Inhibition mean [5]: 1% | % Inhibition Point 1 [6]: 90% | % Inhibition Point 2 [6]: 90% | % Inhibition mean [6]: 90% | % Inhibition Point 1 [7]: 51% | % Inhibition Point 2 [7]: 48% | % Inhibition mean [7]: 49% | % Inhibition Point 1 [8]: 57% | % Inhibition Point 2 [8]: 55% | % Inhibition mean [8]: 56% | % Inhibition Point 1 [9]: 92% | % Inhibition Point 2 [9]: 93% | % Inhibition mean [9]: 93% | % Inhibition Point 1 [14]: 34% | % Inhibition Point 2 [14]: 36% | % Inhibition mean [14]: 35% | % Inhibition Point 1 [10]: 17% | % Inhibition Point 2 [10]: 21% | % Inhibition mean [10]: 19% | % Inhibition Point 1 [11]: 71% | % Inhibition Point 2 [11]: 71% | % Inhibition mean [11]: 71% | % Inhibition Point 1 [12]: 52% | % Inhibition Point 2 [12]: 46% | % Inhibition mean [12]: 49% | % Inhibition Point 1 [13]: 49% | % Inhibition Point 2 [13]: 48% | % Inhibition mean [13]: 49%
SMILES: COc1ccc(OC(=O)n2c(=S)oc3cc(C(C)=O)ccc32)cc1 [Compound 4B]

Reference: patent US9573911B2, “Diphosphate mimetics and uses thereof” (President and Fellows of Harvard College, priority 2011, dated 2017)
